Reference: patent US9376406B2, “uPAR-uPA interaction inhibitors and methods for treating cancer” (Indiana University Research and Technology Corporation, priority 2011, dated 2016)

Assays:
MDA-MB-231 cells [1] = assay: Invasion assay (Matrigel invasion chamber); format: cell-based, human
Experimental: (§1) Invasion Assay. Invasion assays are performed using the Biocoat Matrigel invasion chamber (BD Biosciences, Bedford, Mass.) according to the manufacturer's protocol. The undersurface of the inserts were coated with 30 ng/μl of fibronectin at 4° C. overnight. The filters were equilibrated with 0.5 ml serum-free medium for 2 h. After 4 h of serum starvation, cells were harvested and 5×10^4 cells/500 μl were plated onto the upper chamber of a Transwell filter in medium containing 0.1% FBS and the indicated compounds. 500 μl of 10% FBS medium containing the same amount of compounds or DMSO control were added to the lower chamber. After a 24 h incubation at 37° C. in 5% CO2, the filters were fixed and the number of cells that had invaded was determined as described for the migration assay.
(§2) Testing of the effects of IPR-465 on processes critical for metastasis in cell culture, starting with invasion, was undertaken. A Boyden chamber apparatus was used and results are shown in FIG. 3(a), where the bar groups correspond, from left to right, to H1299 invasion, H1299 cytotoxicity, MDA-MB-231 invasion, MDA-MB-231 cytotoxicity, and in FIG. 3(b), where the bar groups correspond, from left to right, to H1299 Boyden Chamber, H1299 wound healing, H1299 cytotoxicity, MDA-MB-231 Boyden Chamber, MDA-MB-231 wound healing, MDA-MB-231 cytotoxicity.
(§3) Ten fields of unit area on each membrane were counted for cell numbers (magnification, 200×). […] The effect of the compound appears to be more pronounced in MDA-MB-231 cells compared with H1299. The level of toxicity of the compounds is measured at each concentration within the timescale of the invasion experiment to ensure that the observed effects are not due to cytotoxicity (FIG. 3(a)).
(§4) MDA-MB-231 cells were transfected with siRNAs for uPAR, control siRNA (control) or with transfection reagent only (mock). After 48 h, cells were lysed and analysed by immunoblotting.

H1299 cells [2] = assay: Invasion assay (Matrigel invasion chamber); format: cell-based, human
Experimental: as §1, §2, §3, §4

uPAR = biological target: T1, uPAR (Homo sapiens, UniProt Q03405); assay: Fluorescence polarization assay, displacement of GFD-FAM; format: binding; conditions: displacement of GFD-FAM from uPAR
T1 construct: uPAR comprising amino acids 1-277 was expressed in Drosophila S2 cells; made in house; host or cells: Drosophila S2 cells
T1 sequence (Q03405 23-299): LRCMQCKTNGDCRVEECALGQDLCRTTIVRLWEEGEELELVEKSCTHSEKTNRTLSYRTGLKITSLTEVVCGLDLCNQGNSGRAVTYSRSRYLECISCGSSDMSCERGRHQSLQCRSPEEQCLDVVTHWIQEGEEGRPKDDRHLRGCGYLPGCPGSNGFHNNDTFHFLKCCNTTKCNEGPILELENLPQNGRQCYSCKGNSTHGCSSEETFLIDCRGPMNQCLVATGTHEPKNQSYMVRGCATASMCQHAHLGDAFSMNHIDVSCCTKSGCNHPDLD
Experimental: Fluorescence Polarization Assay. […] Polarized fluorescence intensities were measured immediately following addition of inhibitors to the protein-peptide mix at room temperature on an EnVision® Multilabel Plate Readers (PerkinElmer) with excitation and emission wavelengths of 485 and 530 nm, respectively.
Fluorescence Polarization Screening to Identify Hit Compounds. To identify compounds that bind to uPAR at the GFD binding site, a fluorescent polarization assay is conceived with a probe that consists of labeling GFD with fluorescein at its N-terminus (GFD-FAM). […] Using this assay, all compounds that emerge from the computational screening are tested initially at a single concentration of 50 μM. The compounds showing the highest reduction in polarization are subjected to activity confirmation.

MDA-MB-231 cells [3] = assay: Cytotoxicity (MTT); format: cell-based, human
Experimental: (§5) Transwell Migration Assay. A 24 well transwell plates (Costar, Corning, N.Y.) were coated with fibronectin. After 4 h of serum starvation, medium containing the same amount of compounds or DMSO were added to the upper chamber and incubated at 37° C. for 8 h. The number of migrated cells was counted in 10 separate 200×fields and averaged over three independent experiments. Cytotoxicity of the compounds on the cells was measured at the same concentrations used in the migration assay during the same incubation time. MTT was added 2 h before measuring.
(§6) A 24 well transwell plates (Costar, Corning, N.Y.) were coated with 30 ng/μl of fibronectin at 4° C. overnight. 500 μl of 10% FBS RPMI-1640 medium containing compounds or 1% DMSO control was added to the lower chamber. After 4 h of serum starvation, 5×10^4 cells in 250 μl of 0.1% FBS medium containing the same amount of compounds or DMSO were added to the upper chamber and incubated at 37° C. for 8 h. Non-invaded cells on the top of the transwell were scrapped-off with a cotton swab, and the cells that had migrated through the filter were fixed in methanol for 30 min, stained with Hematoxylin Stain (Fisher, SH30-500D) for 1 h. The number of migrated cells was counted in 10 separate 200×fields and averaged over three independent experiments. Cytotoxicity of the compounds on the cells was measured at the same concentrations used in the migration assay during the same incubation time, MTT was added 2 h before measuring.
as §3

H1299 cells [4] = assay: Cytotoxicity (MTT); format: cell-based, human
Experimental: as §5, §6, §3

uPAATF binding to uPAR = biological target: T2, uPAATF binding to uPAR (Homo sapiens, UniProt Q03405); assay: Microtiter-based uPAATF ELISA; conditions: inhibition of uPAATF binding to uPAR
T2 construct: uPAR comprising amino acids 1-277 was expressed in Drosophila S2 cells; made in house; host or cells: Drosophila S2 cells (uPAR)
T2 sequence (Q03405 23-299): as above
Experimental: Microtiter-Based ELISA. The competition-binding assays were performed by incubating the proteins with inhibitors prior to binding to the immobilized proteins. Medium to high-binding microplates were coated and incubated for 1 hour at 4° C. with 100 μL of 2 μg/mL of uPAATF in 1×PBS for immobilization. A 1:1 mixture of Superblock® buffer in PBS (Thermoscientific) with 0.04 M NaH2PO4 and 0.3 M NaCl buffer were used for blocking Following the incubation and washing steps, uPA1310 biotinylated antibody (R&D Systems, MN) in 1% BSA 1×PBS buffer (100 μL/well) was added to the wells and incubated for 1-2 hours to allow for the detection of bound uPAR. In the presence of streptavidin-peroxidase and hydrogen peroxide signal was detected on an EnVision® Multilabel Plate Readers (PerkinElmer).

Question: With `CC1CC(C)CN(c2cc(Nc3ccccc3C(=O)O)c3c4c(onc24)-c2ccccc2C3=O)C1` (stereo not drawn) [IPR-456] as the compound, how does the IC50 (MDA-MB-231 cells [1]; Homo sapiens, MDA-MB-231) read?
Answer: ~50 µM

Question: And the “number of cells able to invade through the membrane” value (MDA-MB-231 cells [1]; MDA-MB-231)?
Answer: dose-dependent reduction

Question: What about the influence on invasion (MDA-MB-231 cells [1]; MDA-MB-231 with siRNA knockdown of uPAR) of the same compound?
Answer: no additional influence on invasion

Question: What about the “number of cells able to invade through the membrane” value (H1299 cells [2]; H1299) of the same compound?
Answer: dose-dependent reduction

Question: What about the influence on invasion (H1299 cells [2]; H1299 with siRNA knockdown of uPAR) of the same compound?
Answer: no additional influence on invasion

Question: And the IC50 (H1299 cells [2]; Homo sapiens, NCI-H1299)?
Answer: ~50 µM

Question: What about the Ki (uPAR) of the same compound?
Answer: 4 µM

Question: And the cytotoxicity (MDA-MB-231 cells [3]; MDA-MB-231, cells harvested from migration assays)?
Answer: none was observed

Question: What about the cytotoxicity (MDA-MB-231 cells [3]; MDA-MB-231, timescale of invasion experiment, concentrations reaching 200 μM) of the same compound?
Answer: did not exhibit undue toxicity

Question: And the cytotoxicity (H1299 cells [4]; H1299, cells harvested from migration assays)?
Answer: none was observed

Question: And the cytotoxicity (H1299 cells [4]; H1299, timescale of invasion experiment, concentrations reaching 200 μM)?
Answer: did not exhibit undue toxicity

Question: What about the IC50 (uPAATF binding to uPAR) of the same compound?
Answer: ~10 µM
